From PubChem BioAssay AID330 (DTP/NCI, 2004)
Several values for one entry are separate records, joined by “and”; a condition that tells them apart may be missing. Identical values can stand only once. Toxic doses and inconclusive results are not listed.

Tested on: P388 leukemia ip, CD2F1 mice, survival T/C
Experiment: NCI In Vivo Anticancer Drug Screen. Data for tumor model P388 Leukemia (intraperitoneal) in CD2F1 (CDF1) mice
Conditions: endpoint: median survival time, higher = longer survival
Method in brief: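 Mice carrying the transplanted tumor received test compound or vehicle. Survival was recorded in each group, and the value is the treated-group measurement divided by that of the vehicle-treated control group.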

[1] = dose: 25.0 mg/kg/injection, schedule: Q01DX009 (ip), vehicle: saline with Tween-80
[2] = dose: 50.0 mg/kg/injection, schedule: Q01DX009 (ip), vehicle: saline with Tween-80
[3] = dose: 100.0 mg/kg/injection, schedule: Q01DX009 (ip), vehicle: saline with Tween-80
[4] = dose: 50.0 mg/kg/injection, schedule: Q01DX005 (ip), vehicle: saline with Tween-80
[5] = dose: 100.0 mg/kg/injection, schedule: Q01DX005 (ip), vehicle: saline with Tween-80
[6] = dose: 200.0 mg/kg/injection, schedule: Q01DX005 (ip), vehicle: saline with Tween-80
[7] = dose: 25.0 mg/kg/injection, schedule: Q01DX005 (ip), vehicle: saline with Tween-80
[8] = dose: 12.5 mg/kg/injection, schedule: Q01DX005 (ip), vehicle: Klucel (hydroxypropylcellulose) (HPC)
[9] = dose: 25.0 mg/kg/injection, schedule: Q01DX005 (ip), vehicle: Klucel (hydroxypropylcellulose) (HPC)
[10] = dose: 50.0 mg/kg/injection, schedule: Q01DX005 (ip), vehicle: Klucel (hydroxypropylcellulose) (HPC)
[11] = dose: 60.0 mg/kg/injection, schedule: Q01DX005 (ip), vehicle: saline with Tween-80
[12] = dose: 120.0 mg/kg/injection, schedule: Q01DX005 (ip), vehicle: saline with Tween-80
[13] = dose: 240.0 mg/kg/injection, schedule: Q01DX005 (ip), vehicle: saline with Tween-80
[14] = dose: 50.0 mg/kg/injection, schedule: Q01DX009 (ip), vehicle: Klucel (hydroxypropylcellulose) (HPC)
[15] = dose: 100.0 mg/kg/injection, schedule: Q01DX009 (ip), vehicle: Klucel (hydroxypropylcellulose) (HPC)
[16] = dose: 200.0 mg/kg/injection, schedule: Q01DX009 (ip), vehicle: Klucel (hydroxypropylcellulose) (HPC)
[17] = dose: 50.0 mg/kg/injection, schedule: Q01DX009 (ip), vehicle: saline
[18] = dose: 100.0 mg/kg/injection, schedule: Q01DX009 (ip), vehicle: saline
[19] = dose: 200.0 mg/kg/injection, schedule: Q01DX009 (ip), vehicle: saline
[20] = dose: 100.0 mg/kg/injection, schedule: Q04DX003 (ip), vehicle: saline with Tween-80
[21] = dose: 100.0 mg/kg/injection, schedule: Q04DX002 (ip), vehicle: Klucel (hydroxypropylcellulose) (HPC)
[22] = dose: 200.0 mg/kg/injection, schedule: Q04DX002 (ip), vehicle: Klucel (hydroxypropylcellulose) (HPC)

## CCCCCCCCSCc1ccc(Nc2ccc(Nc3ccc(CSCCCCCCCC)cc3)cc2)cc1
dose: 50.0 mg/kg/injection, schedule: Q01DX006 (ip), vehicle: other
  T/C: 102 % of control
dose: 50.0 mg/kg/injection, schedule: Q01DX009 (ip), vehicle: acetone
  T/C: 101 % of control
dose: 100.0 mg/kg/injection, schedule: Q01DX006 (ip), vehicle: other
  T/C: 116 % of control
dose: 100.0 mg/kg/injection, schedule: Q01DX009 (ip), vehicle: acetone
  T/C: 107 % of control
dose: 200.0 mg/kg/injection, schedule: Q01DX006 (ip), vehicle: other
  T/C: 117 % of control

## O=C1C2(Cl)C3(Cl)C4(Cl)C(Cl)(Cl)C5(Cl)[C@]3(Cl)C1(Cl)[C@]5(Cl)C24Cl (stereo partly drawn)
dose: 12.5 mg/kg/injection, schedule: Q01DX009 (ip), vehicle: Klucel (hydroxypropylcellulose) (HPC)
  T/C: 110 % of control
dose: 12.5 mg/kg/injection, schedule: Q01DX009 (ip), vehicle: saline with Tween-80
  T/C: 94 % of control
dose: 25.0 mg/kg/injection, schedule: Q01DX009 (ip), vehicle: Klucel (hydroxypropylcellulose) (HPC)
  T/C: 112 % of control
[1]
  T/C: 87 % of control

## CC(C)OC(=S)SCC(=O)c1ccc(Br)cc1
[2]
  T/C: 114 % of control
[3]
  T/C: 107 % of control
dose: 200.0 mg/kg/injection, schedule: Q01DX009 (ip), vehicle: saline with Tween-80
  T/C: 106 % of control

## C=C1C(=C)C2OC1c1cc3c(cc12)C(=O)c1ccccc1C3=O
[4]
  T/C: 90 % of control
[5]
  T/C: 109 % of control
[6]
  T/C: 114 % of control

## Cc1cc2nnc(-c3ccc(C#N)cc3)n2c2nnnn12
[7]
  T/C: 100 % of control
[4]
  T/C: 100 % of control
[5]
  T/C: 104 % of control
[6]
  T/C: 104 % of control

## N/C(=N\[N+](=O)[O-])N1CCCCCC1
[8]
  T/C: 106 % of control
[9]
  T/C: 100 % of control
[10]
  T/C: 107 % of control

## N#Cc1nnn2c1nc(N)c1c(Cl)cccc12
[11]
  T/C: 98 % of control
[12]
  T/C: 100 % of control
[13]
  T/C: 100 % of control

## COCOc1cccc2c1CCC2
[4]
  T/C: 100 % of control
[5]
  T/C: 100 % of control
[6]
  T/C: 100 % of control

## NC(=O)NN(Cc1ccc2c(c1)OCO2)N=O
[14]
  T/C: 99 % of control
[15]
  T/C: 107 % of control
[16]
  T/C: 91 % of control

## CS(=O)(=O)C12CCCN1C(=O)C1CCCN1C2=O (stereo not drawn)
[17]
  T/C: 99 % of control
[18]
  T/C: 102 % of control
[19]
  T/C: 90 % of control

## CC1CCC(C(C)(C)c2ccccc2)C(OC(=O)C2C3CCC=C3C3CC(C)(C)CC32)C1 (stereo not drawn)
dose: 21.25 mg/kg/injection, schedule: Q01DX005 (ip), vehicle: saline with Tween-80
  T/C: 99 % of control
dose: 42.5 mg/kg/injection, schedule: Q01DX005 (ip), vehicle: saline with Tween-80
  T/C: 96 % of control
dose: 85.0 mg/kg/injection, schedule: Q01DX005 (ip), vehicle: saline with Tween-80
  T/C: 100 % of control

## Cc1ccc2nc(N)nnc2c1
[14]
  T/C: 104 % of control
[15]
  T/C: 100 % of control

## Cc1cc(-c2ccccc2)c(C)c(-c2ccccc2)c1-c1ccccc1
dose: 100.0 mg/kg/injection, schedule: Q04DX002 (ip), vehicle: saline with Tween-80
  T/C: 99 % of control
dose: 200.0 mg/kg/injection, schedule: Q04DX002 (ip), vehicle: saline with Tween-80
  T/C: 101 % of control
dose: 400.0 mg/kg/injection, schedule: Q04DX002 (ip), vehicle: saline with Tween-80
  T/C: 96 % of control

## CCN(CC)c1ccc2cc(S(=O)(=O)c3ccc(Cl)cc3)c(=O)oc2c1
[4]
  T/C: 86 % of control
[5]
  T/C: 92 % of control

## Cc1ccc(NCCN(C)C)c2c(=O)c3ccc(O)cc3sc12
[2]
  T/C: 110 % of control
[3]
  T/C: 110 % of control

## COC(=O)CSc1nnc(CSc2ccc(Cl)cc2)n1-c1ccccc1
[11]
  T/C: 93 % of control
[12]
  T/C: 92 % of control
[13]
  T/C: 96 % of control

## ON=C1CCCCCCC1
dose: 50.0 mg/kg/injection, schedule: Q01DX009 (ip), vehicle: suspension in saline
  T/C: 97 % of control
dose: 100.0 mg/kg/injection, schedule: Q01DX009 (ip), vehicle: suspension in saline
  T/C: 104 % of control
dose: 200.0 mg/kg/injection, schedule: Q01DX009 (ip), vehicle: suspension in saline
  T/C: 103 % of control
dose: 400.0 mg/kg/injection, schedule: Q01DX009 (ip), vehicle: suspension in saline
  T/C: 98 % of control

## O=C(Nc1ccc2cc(S(=O)(=O)O)ccc2c1)c1ccc(N=Nc2c(S(=O)(=O)O)cc3cc(S(=O)(=O)O)cc(NC(=O)c4ccccc4)c3c2O)cc1
[1]
  T/C: 108 % of control
dose: 25.0 mg/kg/injection, schedule: Q04DX003 (ip), vehicle: saline with Tween-80
  T/C: 91 % of control
[2]
  T/C: 108 % of control
dose: 50.0 mg/kg/injection, schedule: Q04DX003 (ip), vehicle: saline with Tween-80
  T/C: 87 % of control
[3]
  T/C: 87 % of control
[20]
  T/C: 95 % of control

## Cn1ccn(C)c1=S
[17]
  T/C: 107 % of control
[18]
  T/C: 97 % of control
[19]
  T/C: 101 % of control

## CC1=NN(C(=O)c2cccnc2)C(=O)C1N=Nc1ccc(S(=O)(=O)Nc2nccs2)cc1 (stereo not drawn)
[20]
  T/C: 101 % of control
dose: 200.0 mg/kg/injection, schedule: Q04DX003 (ip), vehicle: saline with Tween-80
  T/C: 99 % of control
dose: 400.0 mg/kg/injection, schedule: Q04DX003 (ip), vehicle: saline with Tween-80
  T/C: 95 % of control

## CCOc1cc(/C=N\Nc2nnc(C)n2N)c(C)cc1N(CCCl)CCCl
dose: 0.22 mg/kg/injection, schedule: Q01DX009 (ip), vehicle: saline with Tween-80
  T/C: 110 % of control
dose: 0.33 mg/kg/injection, schedule: Q01DX009 (ip), vehicle: saline with Tween-80
  T/C: 105 % of control
dose: 0.5 mg/kg/injection, schedule: Q01DX009 (ip), vehicle: saline with Tween-80
  T/C: 110 % of control
dose: 0.75 mg/kg/injection, schedule: Q01DX009 (ip), vehicle: saline with Tween-80
  T/C: 120 % of control
dose: 1.25 mg/kg/injection, schedule: Q04DX003 (ip), vehicle: saline
  T/C: 100 % of control
dose: 2.0 mg/kg/injection, schedule: Q01DX009 (ip), vehicle: saline with Tween-80
  T/C: 160 % of control
dose: 2.5 mg/kg/injection, schedule: Q04DX003 (ip), vehicle: saline
  T/C: 100 % of control
dose: 4.0 mg/kg/injection, schedule: Q01DX009 (ip), vehicle: saline with Tween-80
  T/C: 185 % of control
dose: 5.0 mg/kg/injection, schedule: Q04DX003 (ip), vehicle: saline
  T/C: 103 % of control

## Cc1ccc(NC2SC(=O)N(Cc3ccccc3)/C2=N/N=C2\C(Nc3ccc(C)cc3)SC(=O)N2Cc2ccccc2)cc1 (stereo not drawn)
[21]
  T/C: 97 % of control
[22]
  T/C: 97 % of control
dose: 400.0 mg/kg/injection, schedule: Q04DX002 (ip), vehicle: Klucel (hydroxypropylcellulose) (HPC)
  T/C: 97 % of control

## CCOC(CN1Cc2cc(OC)c(OC)cc2CC1c1ccc(OC)c(OC)c1)OCC (stereo not drawn)
[11]
  T/C: 95 % of control
[12]
  T/C: 92 % of control

## Cc1[nH]nc2c(Cc3ccco3)n[nH]c(=O)c12
[14]
  T/C: 101 % of control
[15]
  T/C: 100 % of control
[16]
  T/C: 100 % of control

## O=C(O)Cc1ccc2c(c1)sc1nc(-c3ccc(Br)cc3)cn12
dose: 100.0 mg/kg/injection, schedule: Q04DX003 (ip), vehicle: Klucel (hydroxypropylcellulose) (HPC)
  T/C: 101 % of control
dose: 200.0 mg/kg/injection, schedule: Q04DX003 (ip), vehicle: Klucel (hydroxypropylcellulose) (HPC)
  T/C: 103 % of control
dose: 400.0 mg/kg/injection, schedule: Q04DX003 (ip), vehicle: Klucel (hydroxypropylcellulose) (HPC)
  T/C: 103 % of control

## [CH3][Sn]([CH3])([S]c1nc(O)cc(=O)[nH]1)[S]c1nc(O)cc(=O)[nH]1
[8]
  T/C: 105 % of control and 108 % of control
[9]
  T/C: 96 % of control
[10]
  T/C: 117 % of control and 88 % of control and 89 % of control

## O=C1C=C2CCC3=CC(=O)C(=CC3=O)CCC(=C1)C2=O
[21]
  T/C: 97 % of control
[22]
  T/C: 97 % of control

## CC1C2=C(CN(C)CC2)c2ccccc21 (stereo not drawn)
dose: 12.5 mg/kg/injection, schedule: Q01DX005 (ip), vehicle: saline with Tween-80
  T/C: 100 % of control
[7]
  T/C: 96 % of control
[4]
  T/C: 105 % of control
